System: antiserum RY469 (Rabbit antiserum prepared in Example 1-(2))
Test: ELISA system for estrone with biotinylated estradiol derivative 1 as labeled compound (standard curve, cross-reactivity test)
Assay type: binding
Conditions: relative to estrone (calculated as 100%), labeled compound biotinylated estradiol derivative 1
Procedure: (2) An ELISA system for estrone using the derivative of the invention as a labeled compound was designed in the following manner.
Biotinylated estradiol derivative 1 of the invention
RY469 (Rabbit antiserum prepared in Example 1-(2)
(a) 100 μL of a standard solution or a sample is pipetted into each well of the 96-well plate, followed by addition of 50 μL of the labeled compound (0.25 ng/mL) comprising the biotinylated estradiol derivative of the invention and 50 μL of the antiserum (×32000);
(b) the reaction is allowed to proceed using a microplate shaker at room temperature for 5 hours;
(§1) (c) all the wells are washed with the wash solution 4 times;
(d) 100 μL of the HRP-labeled reagent (×5000) is added;
(e) the reaction is allowed to proceed using a microplate shaker at room temperature for 1 hour;
(f) all the wells are washed with the wash solution 4 times;
(g) 100 μL of the substrate is added;
(h) the reaction is allowed to proceed at 20° C. for 20 minutes;
(i) 100 μL of the enzyme reaction stop solution is pipetted into each well;
(j) absorbance at 450 nm is measured with a microplate autoreader.
The specifity of the estrone ELISA system was assessed in the following manner.
ELISA was repeated in a similar manner as in Example 3-(2) except that the estrogens shown in Table 2 were used in place of the standard estrone (Sigma Co.). The standard curve of each of the estrogens was obtained (see FIG. 6).

Compound | Cross-reactivity (%)
CC(C)(c1ccc(O)cc1)c1ccc(O)cc1 [Bisphenol A] | <0.001%
Catechin | <0.001%
Nonylphenol | <0.001%
C[C@]12CC[C@@H]3c4ccc(O)cc4CC[C@H]3[C@@H]1CC[C@@H]2O [17β-Estradiol] | 33.33%
C[C@]12CC[C@@H]3c4ccc(O)cc4CC[C@H]3[C@@H]1C[C@@H](O)[C@@H]2O [Estriol] | 0.15%
O=C(O[C@@H]1Cc2c(O)cc(O)cc2O[C@@H]1c1ccc(O)c(O)c1)c1cc(O)c(O)c(O)c1 [Epicatechin gallate] | <0.001%

System: antiserum RY725 (Rabbit antiserum obtained in Example 1-(1))
Test: ELISA system for 17β-estradiol with biotinylated estradiol derivative 2 as labeled compound (standard curve, cross-reactivity test)
Assay type: binding
Conditions: relative to 17β-estradiol (calculated as 100%), labeled compound biotinylated estradiol derivative 2
Procedure: (1) An ELISA system for 17β-estradiol using the derivative of the invention as a labeled compound was prepared in the following manner.
(a) 100 μL of a standard solution or a sample is pipetted into each well of the 96-well plate, followed by addition of 50 μL of the labeled compound (0.2 ng/mL) comprising the biotinylated estradiol derivative of the invention and 50 μL of the antiserum (×32000);
(b) the reaction is allowed to proceed at 4° C. overnight (for 18-20 hours);
as §1
(d) the reaction is allowed to proceed using a microplate shaker at room temperature for 2 hours;
(e) all the wells are washed with the wash solution 4 times;
(f) […] of the substrate is added;
(g) the reaction is allowed to proceed at room temperature for 20 minutes;
(h) 100 μL of the enzyme reaction stop solution is pipetted into each well;
(i) absorbance at 450 nm is measured with a microplate autoreader.
The specifity of the 17β-estradiol ELISA system was assessed in the following manner.

Compound | Cross-reactivity (%)
C[C@]12CC[C@@H]3c4ccc(O)cc4CC[C@H]3[C@@H]1CC[C@@H]2O[C@@H]1O[C@H](C(=O)O)[C@@H](O)[C@H](O)[C@H]1O [β-Estradiol 17-(β-D-glucronide)] | 0.00%
CC[C@H](c1ccc(O)cc1)[C@@H](CC)c1ccc(O)cc1 [Hexestrol] | 0.00%
COc1cc2c(cc1O)CC[C@@H]1[C@@H]2CC[C@]2(C)[C@@H](O)CC[C@@H]12 [2-Methoxyestradiol] | 1.79%
C[C@]12CC[C@@H]3c4ccc(O)cc4CC[C@H]3[C@@H]1CC[C@@H]2O [17β-Estradiol] | 100.00%
C[C@]12CC[C@@H]3c4ccc(O)cc4CC[C@H]3[C@@H]1C[C@@H](O)[C@@H]2O [Estriol] | 0.16%
C#C[C@]1(O)CC[C@H]2[C@@H]3CCc4cc(OC)ccc4[C@H]3CC[C@@]21C [Mestranol] | 0.14%
C[C@]12CC[C@@H]3c4ccc(O[C@@H]5O[C@H](C(=O)O)[C@@H](O)[C@H](O)[C@H]5O)cc4CC[C@H]3[C@@H]1CC[C@@H]2O [β-Estradiol 3-(β-D-glucronide)] | 37.44%
CC12CCC3c4ccc(OC5OC(C(=O)O)C(O)C(O)C5O)cc4CCC3C1CCC2OS(=O)(=O)O (stereo not drawn) [β-Estradiol 3-glucronide 17-sulfate] | 0.02%
β-Estradiol 3-sulfate | 11.05%
C[C@]12CCC(=O)C=C1CC[C@@H]1[C@@H]2CC[C@]2(C)C(=O)CC[C@@H]12 [(+)-4-Androsteron-3,17-dione] | 0.02%
C[C@]12CCC(=O)C=C1CC[C@@H]1[C@@H]2[C@@H](O)C[C@]2(C=O)[C@@H](C(=O)CO)CC[C@@H]12 [d-ALDOSTERONE] | 0.00%
C[C@]12CCC3c4ccc(OS(=O)(=O)O)cc4CCC3C1CC[C@@H]2OS(=O)(=O)O (stereo partly drawn) [β-Estradiol 3,7-disulfate] | 0.00%
C[C@]12CC[C@H]3[C@@H](CCC4=CC(=O)CC[C@@]43C)[C@@H]1CC[C@@H]2O [Testosterone] | 0.28%
CC(=O)[C@H]1CC[C@H]2[C@@H]3CCC4=CC(=O)CC[C@]4(C)[C@H]3CC[C@]12C [Progesteron] | 0.01%
C[C@]12CC[C@@H]3c4ccc(OS(=O)(=O)O)cc4CC[C@H]3[C@@H]1CC[C@@H]2O[C@@H]1O[C@H](C(=O)O)[C@@H](O)[C@H](O)[C@H]1O [β-Estradiol 3-sulfate 17-glucronide] | 0.00%
C#C[C@]1(O)CC[C@H]2[C@@H]3CCc4cc(O)ccc4[C@H]3CC[C@@]21C [Ethynylestradiol] | 0.03%

System: not given
Test: not given
Conditions: general statement on prior art; cited from earlier work

Compound | solubility in water
O=C(O)CCCC[C@@H]1SC[C@@H]2NC(=O)N[C@@H]21 [biotin] | minimally soluble in water

— patent US20020028929A1, “Estradiol derivative and immunoassay using the same” (priority 2000, published 2002)
